Source: ChEMBL document CHEMBL1201862, “PubChem BioAssay data set” (2004)
Counter-ions that a name gives are not always drawn. Activity calls are given as the source filed them.

How the values were obtained:
[1] = molecular target: T1, Corticotropin-releasing factor receptor 2/Corticotropin-releasing factor-binding protein (Homo sapiens, UniProt P24387+Q13324); assay: Dose Response confirmation of uHTS hits for small molecule antagonists of the CRF-binding protein and CRF-R2 receptor complex.; type: functional; settings: read-out: IC50_Mean
T1 sequence (Q13324 whole entry): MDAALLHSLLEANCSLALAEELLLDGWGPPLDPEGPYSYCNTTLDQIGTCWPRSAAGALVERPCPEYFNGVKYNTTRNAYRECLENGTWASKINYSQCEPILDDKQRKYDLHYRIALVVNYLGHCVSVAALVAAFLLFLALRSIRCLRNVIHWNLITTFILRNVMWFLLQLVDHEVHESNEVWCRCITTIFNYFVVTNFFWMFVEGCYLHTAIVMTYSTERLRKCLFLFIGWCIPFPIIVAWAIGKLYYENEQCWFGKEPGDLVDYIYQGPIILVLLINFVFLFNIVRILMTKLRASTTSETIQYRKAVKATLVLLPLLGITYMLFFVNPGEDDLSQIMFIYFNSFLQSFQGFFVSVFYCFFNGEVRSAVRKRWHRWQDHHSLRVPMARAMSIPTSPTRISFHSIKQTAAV
T1 sequence (P24387 whole entry): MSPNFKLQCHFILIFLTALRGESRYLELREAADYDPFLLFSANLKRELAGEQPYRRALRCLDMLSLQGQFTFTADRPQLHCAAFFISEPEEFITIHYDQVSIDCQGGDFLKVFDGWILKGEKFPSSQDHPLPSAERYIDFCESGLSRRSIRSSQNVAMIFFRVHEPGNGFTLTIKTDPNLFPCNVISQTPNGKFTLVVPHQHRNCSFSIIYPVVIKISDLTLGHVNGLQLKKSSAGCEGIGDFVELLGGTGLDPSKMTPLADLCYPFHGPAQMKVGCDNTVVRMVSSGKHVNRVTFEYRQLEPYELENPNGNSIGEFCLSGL

[2] = molecular target: T1, Corticotropin-releasing factor receptor 2/Corticotropin-releasing factor-binding protein; assay: activators of CRF receptor 2 with binding protein – uHTS hits, confirmation (AID 602473); type: functional; settings: read-out: EC50_Mean
[3] = molecular target: T2, Heat shock factor protein 1 (Mus musculus, UniProt P38532); assay: HSF1 potentiators in luciferase reporter cells, confirmation, cell-based, NIH3T3, luminescence, dose retest (AID 435004); type: functional;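 further: stress induced by proteasome inhibitor MG132 added 30 min after compound; luciferase reporter driven by HSF1 response element in NIH3T3 cells; actives raise luminescence as potentiators of the MG132 stress response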
T2 sequence (P38532 whole entry): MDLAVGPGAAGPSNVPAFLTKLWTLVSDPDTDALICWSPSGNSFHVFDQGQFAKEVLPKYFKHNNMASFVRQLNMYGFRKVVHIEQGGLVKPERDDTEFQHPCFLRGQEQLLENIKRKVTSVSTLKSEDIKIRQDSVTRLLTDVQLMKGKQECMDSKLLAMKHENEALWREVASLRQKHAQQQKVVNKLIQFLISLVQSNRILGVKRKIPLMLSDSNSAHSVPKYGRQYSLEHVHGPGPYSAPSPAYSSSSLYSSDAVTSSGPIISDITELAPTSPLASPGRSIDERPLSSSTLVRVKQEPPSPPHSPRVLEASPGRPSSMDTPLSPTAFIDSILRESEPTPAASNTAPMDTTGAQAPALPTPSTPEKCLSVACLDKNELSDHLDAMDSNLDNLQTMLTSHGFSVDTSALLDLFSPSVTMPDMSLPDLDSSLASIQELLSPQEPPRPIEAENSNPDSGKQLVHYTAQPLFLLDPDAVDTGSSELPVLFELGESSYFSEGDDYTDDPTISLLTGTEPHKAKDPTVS

[4] = inhibitors of firefly luciferase expression or activity, dose response, H4 neuroglioma cells, luminescence (AID 1990); type: functional, cell-based
[5] = Luminescence Cell-Based Dose Response HTS to Identify Inhibitors of 5'UTR Stem-Loop Driven Prion Protein mRNA Translation in H4 Neuroglioblastoma Cells. [Related pubchem assays: 1827 (Project Summary), 1813 (Primary HTS)]; type: functional
[6] = inhibitors of SNCA 5'UTR-driven reporter translation, confirmation, H4 neuroglioma cells, luminescence (AID 1988); type: functional, cell-based
[7] = test system: Streptococcus sp. 'group A'; assay: growth inhibition of control SK(-) GAS strain, dose response, counter-screen for streptokinase expression inhibitor project, luminescence, kanamycin, BacTiterGlo, confirmation (AID 1900); type: functional, organism-based
[8] = molecular target: T3, Streptokinase A (Streptococcus pyogenes serotype M1, UniProt P10520); assay: S. pyogenes streptokinase expression inhibitors, potency, dose response, plasminogen activation absorbance, OD405 (AID 1914); type: functional, Streptococcus pyogenes M1 GAS;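 further: secreted streptokinase activity via plasminogen activation per viability signal from cell pellet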
T3 sequence (P10520 whole entry): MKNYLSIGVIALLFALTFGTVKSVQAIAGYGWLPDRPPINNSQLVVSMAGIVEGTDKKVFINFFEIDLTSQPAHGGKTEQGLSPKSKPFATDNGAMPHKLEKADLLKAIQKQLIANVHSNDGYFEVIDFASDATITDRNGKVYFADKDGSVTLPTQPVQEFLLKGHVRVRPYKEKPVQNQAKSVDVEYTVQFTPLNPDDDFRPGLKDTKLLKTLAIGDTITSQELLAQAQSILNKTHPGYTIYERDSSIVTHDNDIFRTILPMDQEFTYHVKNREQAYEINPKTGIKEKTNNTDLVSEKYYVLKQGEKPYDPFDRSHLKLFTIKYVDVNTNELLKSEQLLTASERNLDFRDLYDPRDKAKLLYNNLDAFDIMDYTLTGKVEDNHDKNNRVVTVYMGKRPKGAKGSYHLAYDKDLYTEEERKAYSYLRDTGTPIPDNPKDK

[9] = test system: Streptococcus; assay: Group A Streptococcus viability loss, dose response, counter-screen for streptokinase expression inhibitor project, luminescence, BacTiterGlo (AID 1915); type: functional, organism-based;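 further: potency for reduction of bacterial viability or growth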
[10] = NIH-3T3 fibroblast cytotoxicity, dose response, cytotoxicity control, cell-based, fluorescence, Alamar Blue, secondary assay (AID 2327); type: functional;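 further: NIH-3T3 mouse fibroblasts cultured with fluconazole at 8 µg/mL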
[11] = C. albicans growth with fluconazole, confirmation, fluorescence, retest (AID 2467); type: functional, cell-based
[12] = molecular target: Cytochrome P450 2C19 (Homo sapiens, UniProt P33261); assay: Cytochrome panel assay with activity outcomes. Panel member name: p450-cyp2c19 Compounds with AC50 equal or less than 10 uM are considered active; type: functional
Cytochrome P450 2C19, sequence (P33261 whole entry): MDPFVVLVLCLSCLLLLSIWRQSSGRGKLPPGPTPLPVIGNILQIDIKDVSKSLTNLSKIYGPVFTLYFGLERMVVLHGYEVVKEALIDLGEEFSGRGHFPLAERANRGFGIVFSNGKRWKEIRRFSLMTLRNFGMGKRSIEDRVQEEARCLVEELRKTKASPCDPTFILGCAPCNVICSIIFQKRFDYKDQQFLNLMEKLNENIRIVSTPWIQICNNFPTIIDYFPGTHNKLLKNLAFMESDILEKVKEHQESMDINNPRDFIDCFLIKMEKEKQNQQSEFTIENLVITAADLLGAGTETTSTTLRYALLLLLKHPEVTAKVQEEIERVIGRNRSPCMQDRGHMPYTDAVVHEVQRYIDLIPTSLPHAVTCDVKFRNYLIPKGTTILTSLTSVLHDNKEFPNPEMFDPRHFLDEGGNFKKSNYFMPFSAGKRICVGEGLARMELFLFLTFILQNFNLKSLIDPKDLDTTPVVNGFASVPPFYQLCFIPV

[13] = molecular target: Cytochrome P450 2C9 (Homo sapiens, UniProt P11712)
Cytochrome P450 2C9, sequence (P11712 whole entry): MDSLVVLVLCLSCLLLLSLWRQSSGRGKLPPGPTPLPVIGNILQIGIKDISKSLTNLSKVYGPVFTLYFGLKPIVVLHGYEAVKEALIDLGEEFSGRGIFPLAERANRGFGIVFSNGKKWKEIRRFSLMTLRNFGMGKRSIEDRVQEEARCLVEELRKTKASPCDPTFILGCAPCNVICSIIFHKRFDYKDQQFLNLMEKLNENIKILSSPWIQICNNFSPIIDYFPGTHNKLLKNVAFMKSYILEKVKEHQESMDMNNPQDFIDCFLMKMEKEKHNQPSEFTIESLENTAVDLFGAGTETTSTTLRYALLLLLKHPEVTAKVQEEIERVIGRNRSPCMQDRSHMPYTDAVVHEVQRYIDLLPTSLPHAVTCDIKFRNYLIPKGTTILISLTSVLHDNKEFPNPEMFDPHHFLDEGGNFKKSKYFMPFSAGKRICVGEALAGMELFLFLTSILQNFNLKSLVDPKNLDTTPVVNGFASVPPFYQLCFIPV

[14] = Luminescence Cell-Based Dose Retest to Confirm Inhibitors of Cancer Stem Cells. [Related pubchem assays (depositor defined):AID2717, AID2721]; type: functional; settings: Homo sapiens
[15] = Shn3 3'UTR reporter inhibitors, dose response, cell-based, Clone20 osteoblasts, firefly luciferase, cherry-picked (AID 624132); type: functional;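 further: firefly luciferase luminescence from reporter carrying the Shn3 3'UTR in osteoblasts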
[16] = HepG2 cell cytotoxicity, dose response, cytotoxicity control for Shn3 inhibitor project, CellTiter-Glo, cherry-picked (AID 624134); type: functional, cell-based
[17] = control 3'UTR Renilla luciferase suppression, dose response, counter-screen for Shn3 inhibitor project, cell-based, Clone20-Shn3RL, cherry-picked (AID 624133); type: functional
[18] = molecular target: T2, Heat shock factor protein 1; assay: inhibition of MG132-induced HSE-luciferase signal, confirmation, cell-based, NIH3T3, luminescence, dose retest (AID 2382); type: functional;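 further: NIH3T3 fibroblasts with HSF1-driven luciferase reporter stressed by proteasome inhibitor MG132; luminescence from HSF1-driven luciferase expression after 8 hours of MG132 stress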
[19] = test system: INS1; assay: beta cell apoptosis inhibitors, cytokine rescue, dose response, luminescence, retest (AID 449756); type: functional, cell-based; settings: Rattus norvegicus;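 further: cell death triggered by IL-1 beta plus TNF-alpha plus IFN-gamma mixture; protective hits raise ATP signal compared with cytokine alone wells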

For CCN(CC)S(=O)(=O)c1cccc(C(=O)Nc2ccc3c(c2)OCO3)c1, the IC50 [1] was > 47.1 µM (inactive) and the EC50 [2] was > 53 µM (inactive).
For NC(=O)CCN1CCN(CCOC2Cc3cc(Cl)ccc3Sc3ccccc32)CC1 (centres undefined), the EC50 [3] was > 260 µM (inactive).
With CC(=O)C1(O)CCC2C3CC(C)C4=CC(=O)C=CC4(C)C3(F)C(O)CC21C (centres undefined) the IC50 [1] was > 47.1 µM (inactive) and the EC50 [2] was > 53 µM (inactive).
With CCO/C(O)=C1\C(C)=Nc2nc3ccccc3n2C1c1ccncc1 (centres undefined) the EC50 [4] was > 120 µM (not active), the EC50 [5] was > 120 µM (not active) and the EC50 [6] was > 120 µM (not active). The EC50 [3] was > 260 µM (inactive).
For Cc1cccc(C)c1OC1(c2ccccc2)OC(=O)c2ccccc21 (centres undefined), the EC50 [7] was 18.4 µM (active), the EC50 [8] was 12.2 µM (active) and the EC50 [9] was > 150 µM (not active).
With CCOc1ncccc1C(=O)NCCc1c[nH]c2ccccc12 the EC50 [3] was > 260 µM (inactive).
For CC12CCC(C(=O)Nc3ncc([N+](=O)[O-])s3)(OC1=O)C2(C)C (centres undefined), the EC50 [10] was > 160 µM (inactive), the EC50 [11] was 0.629 µM (active) and the AC50 [12] was “inconclusive”. For the same molecule, the IC50 [1] was > 47.1 µM (inactive), the EC50 [2] was > 53 µM (inactive) and the AC50 [13] was 11.2 µM (inconclusive).
For CC[C@H](C)[C@H]1O[C@]2(CC[C@@H]1C)C[C@@H]1C[C@@H](CC=C(C)[C@@H](O[C@H]3C[C@H](OC)[C@@H](O[C@H]4C[C@H](OC)[C@@H](O)[C@H](C)O4)[C@H](C)O3)[C@@H](C)C=CC=C3CO[C@@H]4[C@H](O)C(C)=C[C@@H](C(=O)O1)[C@]34O)O2, the AC50 [14] was 1.22 µM (active), the AC50 [15] was 6.32 µM (active) and the AC50 [16] was 31.2 µM (active). For the same molecule, the AC50 [17] was 20.3 µM (active).
For COCC1CCCCN1C(=O)c1cc(COc2ccc3ncccc3c2)on1 (centres undefined), the EC50 [18] was > 195 µM (not active), the AC50 [19] was 3.15 µM (active) and the AC50 [15] was 0.33 µM (active). For the same molecule, the AC50 [16] was 28.9 µM (active) and the AC50 [17] was 3.12 µM (active).
In the case of Cc1ccc(S(=O)(=O)N2CCN(c3ncnc4sccc34)CC2)cc1, the AC50 [19] is reported as 5.64 µM (active), the AC50 [15] is reported as 2.72 µM (active) and the AC50 [16] is reported as 6.76 µM (active). The AC50 [17] was 5.22 µM (active).
In the case of O=C(NCCNC(=O)C(c1ccccc1)c1ccccc1)c1ccco1, the EC50 [10] is reported as > 150 µM (inactive) and the EC50 [11] is reported as > 38 µM (not active).
With Cc1cc(F)ccc1NCc1cc2c(cc1[N+](=O)[O-])OCO2 the EC50 [3] was > 260 µM (inactive).
For O=C(NNC(=O)c1cccc(S(=O)(=O)N2CCCCC2)c1)c1ccccc1, the IC50 [1] was > 47.1 µM (inactive) and the EC50 [2] was > 53 µM (inactive).
For CCOC(=O)c1cc(C#N)c(N2CCN(c3ccc(OC)cc3)CC2)nc1O, the EC50 [10] was > 150 µM (inconclusive) and the EC50 [11] was 0.046 µM (active).
With COC(=O)c1ccc(CSc2nc3ccccc3c(=O)n2-c2cccc(OC)c2)o1 the IC50 [1] was 4.06 µM (active) and the EC50 [2] was > 53 µM (inactive).
In the case of CN(C/C=C/C#CC(C)(C)C)Cc1cccc2ccccc12 [TERBINAFINE HYDROCHLORIDE], the EC50 [10] is reported as > 160 µM (inactive) and the EC50 [11] is reported as 2.94 µM (inconclusive).
For Cc1ccc2[nH]c(SCC(=O)NCc3ccc(F)cc3)nc2c1, the EC50 [3] was > 260 µM (inactive).
